# Earlier results, collected in US11147268B2, “Food contact surface sanitizing liquid” (THE CLOROX COMPANY, priority 2015, dated 2021).
SMILES,Vapor Pressure mmHg (@25° C.),Vapor Pressure mmHg @ 20° C.
"CC(CO)CO [2-methyl 1,3 propanediol]",0.021 (@25° C.) mmHg,
"CC(O)CO (centres unmarked) [1,2, propylene glycol]",,0.07 mmHg
CC(C)O [Isopropyl alcohol],,33 mmHg
"OCCCO [1,3 propanediol]",,0.8 mmHg
CCO [Ethanol],,43 mmHg
